Tests used:
[1] = target: T1, T47D cell calcitonin receptors (Homo sapiens, UniProt P30988); test: Example 4: T47D bioassay, binding of sCT analogs to T47D cell calcitonin receptors (cAMP); type: cell-based; conditions: T47D cells; sCT set at 100% at 1000 pg/mL; various concentrations
T1 construct: This cell line is known to have the following receptors: calcitonin, androgen, progesterone; endogenous in cells; host or cells: T47D (human breast epithelial cell line)
T1 sequence (P30988 25-474): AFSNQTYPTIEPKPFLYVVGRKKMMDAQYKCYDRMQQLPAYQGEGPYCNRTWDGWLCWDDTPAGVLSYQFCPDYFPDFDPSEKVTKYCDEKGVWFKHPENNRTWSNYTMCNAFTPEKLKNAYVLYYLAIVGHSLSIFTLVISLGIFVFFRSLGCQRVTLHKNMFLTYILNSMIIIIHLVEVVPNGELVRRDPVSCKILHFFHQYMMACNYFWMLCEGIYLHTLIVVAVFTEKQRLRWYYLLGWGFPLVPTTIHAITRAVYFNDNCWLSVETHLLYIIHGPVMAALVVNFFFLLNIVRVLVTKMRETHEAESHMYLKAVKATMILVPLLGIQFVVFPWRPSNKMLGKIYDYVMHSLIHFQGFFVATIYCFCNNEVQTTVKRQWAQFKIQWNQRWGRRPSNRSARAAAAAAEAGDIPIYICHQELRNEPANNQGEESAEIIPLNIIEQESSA
Protocol: sCT analogs at various concentrations were tested in a T47D (human breast epithelial cell line) bioassay. This cell line is known to have the following receptors: calcitonin, androgen, progesterone, glucocrticoid, prolactin and estrogen. The results are presented in FIG. 11 as % cAMP binding relative to sCT which was set at 100% cAMP binding at a concentration of 1000 pg/mL.

[2] = test system: CTX-II; test: Example 6: serum CTX-II (Serum PC Cartilaps ELISA), cartilage degradation in DIO rats; type: in vivo, rat; conditions: 1 mg/kg p.o. with 150 mg/kg 5-CNAC, 2 hours after treatment, vs sCT
Protocol: The effect of sCT/calcitonin mimetic on bone and cartilage loss was studied in DIO rats. The animals were dosed as described in Table 6 below, and 2 hours after treatment blood sampling was done by heated tail venous puncture.
Serum CTX-I levels, as an indication of bone resorption, were measured using the RatLaps™ ELISA, and serum CTX-II levels, as an indication of cartilage degradation, were measured using the Serum PC Cartilaps™ ELISA.

[3] = Example 7: insulin tolerance test in Zucker Diabetic Fatty rats; type: in vivo, rat; conditions: ZDF rats; metformin 400 mg/kg/day oral, UGP302 5 μg/kg/day s.c.
Protocol: (§1) To assess the potential of UGP302 (SEQ ID NO: 15) in combination with metformin, Zucker Diabetic Fatty rats were used. At the age of 6 weeks 40 rats were randomized into four groups according to HbA1c, FPG and BW. The groups were: Control (Vehicle), Metformin 400 mg/kg/day, UGP302 5 μg/kg/day and the combination of the two molecules in the stated respective amounts. The treatments were given once daily, and metformin was dosed orally, while UGP302 was given subcutaneously, and the animals were treated for 8 weeks. Fasting blood glucose (FPG) and non-fasted blood glucose (PPG) were monitored biweekly, while HbA1c was measured at termination.
To further assess the effect of both single doses of each molecule and the combination of these at those same doses, the rats underwent an oral glucose tolerance test (OGTT, FIGS. 23A-23B) and an insulin tolerance test (ITT, FIGS. 24A-24B).

[4] = Example 7: combination with metformin in Zucker Diabetic Fatty rats, FPG, PPG, HbA1c; type: in vivo, rat; conditions: ZDF rats; 8 weeks once daily; metformin 400 mg/kg/day oral, UGP302 5 μg/kg/day s.c.
Protocol: as §1

Ac-CSNLSTCVLGKLSQELHKLQTYPRTDVGANAP-NH2 (Ac-CSNLSTCVLGKLSQELHKLQTYPRTDVGANAP-NH2; ends and bridges not checked) [UGP302, calcitonin mimetic]
% cAMP binding relative to sCT [1]: highest level of binding of all the tested compounds
cartilage degradation (serum CTX-II levels) [2]: stronger effect in reduction
insulin tolerance (ITT) [3]: individually improve
fasting blood glucose (FPG) [4]: pronounced reduction throughout the study
non-fasted blood glucose (PPG) [4]: pronounced reduction throughout the study

From patent US9862754B2, “Peptide analogs for treating diseases and disorders” (KeyBioscience AG, priority 2011, dated 2018)
